Consider 14 compounds from the Kinase Knowledgebase extract (Sharma et al. 2016).

Test [1] concerns the target EGFR (UniProt P00533).
Test [2] concerns the target EGFR (human) (UniProt P00533). The conditions noted are these: a431.
The target in test [3] is EGFR (human) (UniProt P00533). The settings on record: sw948.
Test [4] addresses EGFR (human) (UniProt P00533). The settings on record: ls174t.
Test [5] has as its target EGFR (human) (UniProt P00533). The conditions noted are these: a549.
Test [6] concerns the target EGFR (human) (UniProt P00533). The settings on record: mip.
In test [7] the target is EGFR (human) (UniProt P00533). The settings on record: pc-3.
In test [8] the target is EGFR (human) (UniProt P00533). The settings on record: ccrf-cem leukemia cell.
The target of test [9] is EGFR (human) (UniProt P00533). The conditions noted are these: lx1.
The target of test [10] is EGFR (human) (UniProt P00533). The settings on record: colo-205.
Test [11] deals with EGFR (human) (UniProt P00533). The settings on record: lncap.
Test [12] concerns the target EGFR (human) (UniProt P00533). The conditions noted are these: nfc.
In test [13] the target is EGFR (human) (UniProt P00533). The settings on record: cx-1 colon.
In test [14] the target is EGFR (human) (UniProt P00533). The conditions noted are these: hct-15.
The target of test [15] is EGFR (human) (UniProt P00533). The settings on record: ccl228.
The target of test [16] is EGFR (human) (UniProt P00533). The settings on record: t-47d.
For test [17], the target named is EGFR (human) (UniProt P00533). The settings on record: hl-60.
In test [18] the target is EGFR (human) (UniProt P00533). The settings on record: a2780s.
Test [19] addresses EGFR (human) (UniProt P00533). The conditions noted are these: htb161.
Test [20] has as its target EGFR (UniProt P00533). This is another data set of the same source.
For test [21], the target named is EGFR (human) (UniProt P00533). The conditions noted are these: nhek.
In test [22] the target is EGFR (human) (UniProt P00533). The settings on record: a2780ddp.
For test [23], the target named is EGFR (human) (UniProt P00533). The settings on record: caco2.
In test [24] the target is EGFR (human) (UniProt P00533). The conditions noted are these: b7474.
Test [25] addresses EGFR (human) (UniProt P00533). The conditions noted are these: du145.

In brackets after ≈: the same amount, converted by molar mass. Several values for one entry are separate records, joined by “and”; a condition that tells them apart may be missing. Equal values may be shown once. Some results are limits rather than exact numbers.

Sequence of EGFR (P00533 whole entry, looked up): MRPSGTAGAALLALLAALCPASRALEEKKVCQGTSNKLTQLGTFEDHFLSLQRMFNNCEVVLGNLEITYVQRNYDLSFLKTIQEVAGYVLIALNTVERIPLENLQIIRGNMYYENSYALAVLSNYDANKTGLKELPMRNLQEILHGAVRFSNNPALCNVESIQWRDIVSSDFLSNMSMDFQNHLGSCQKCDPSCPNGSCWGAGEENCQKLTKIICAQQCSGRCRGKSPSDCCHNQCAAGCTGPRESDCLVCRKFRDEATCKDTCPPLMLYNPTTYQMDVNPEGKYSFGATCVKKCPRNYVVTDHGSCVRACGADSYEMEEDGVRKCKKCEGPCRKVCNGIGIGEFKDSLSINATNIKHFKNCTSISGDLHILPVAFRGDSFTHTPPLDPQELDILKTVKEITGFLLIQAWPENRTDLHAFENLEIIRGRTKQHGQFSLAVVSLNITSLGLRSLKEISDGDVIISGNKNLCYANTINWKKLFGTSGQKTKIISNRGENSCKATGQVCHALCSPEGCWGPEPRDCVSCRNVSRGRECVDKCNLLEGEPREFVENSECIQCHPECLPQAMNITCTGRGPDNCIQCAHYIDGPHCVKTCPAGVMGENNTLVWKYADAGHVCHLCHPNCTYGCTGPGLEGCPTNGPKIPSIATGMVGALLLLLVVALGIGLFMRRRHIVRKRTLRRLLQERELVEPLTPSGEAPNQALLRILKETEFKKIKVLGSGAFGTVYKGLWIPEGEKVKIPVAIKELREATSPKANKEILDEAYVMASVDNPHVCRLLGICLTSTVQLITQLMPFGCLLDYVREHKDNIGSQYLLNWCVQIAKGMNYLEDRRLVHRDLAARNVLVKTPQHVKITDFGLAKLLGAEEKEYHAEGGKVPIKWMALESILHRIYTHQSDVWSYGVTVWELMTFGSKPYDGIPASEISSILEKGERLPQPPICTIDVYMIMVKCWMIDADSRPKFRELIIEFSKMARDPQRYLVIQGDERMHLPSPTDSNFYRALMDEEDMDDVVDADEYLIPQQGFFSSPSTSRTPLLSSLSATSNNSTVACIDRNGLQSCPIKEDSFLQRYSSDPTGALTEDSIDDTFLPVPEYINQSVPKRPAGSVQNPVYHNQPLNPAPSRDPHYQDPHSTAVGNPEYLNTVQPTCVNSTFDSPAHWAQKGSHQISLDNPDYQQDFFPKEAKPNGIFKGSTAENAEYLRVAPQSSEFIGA
Sequence of EGFR (human) (P00533 whole entry, looked up): as above

In the case of `COC/C=C/C(=O)Nc1ccc2ncc(C#N)c(Nc3cccc(Br)c3)c2c1`, the IC50 turned out to be 80 nM on EGFR [1] and 0.8 µg/mL at EGFR (human) [2].
Regarding `COc1cc2ncc(C#N)c(Oc3cccc(Br)c3)c2cc1OC`, the IC50 at EGFR (human) [3], at EGFR (human) [4], on EGFR (human) [5], against EGFR (human) [6], against EGFR (human) [7] and against EGFR (human) [8] was over 100 µg/mL throughout. Moreover, the results for the concentration for half-maximal inhibition (IC50) at EGFR (human) [2] and at EGFR (human) [9] were 100 µg/mL and over 100 µg/mL, respectively.
For `COc1cc2ncc(C#N)c(Nc3cccc(Cl)c3)c2cc1OC`, the IC50 on EGFR (human) [2] was 240 nM and 0.71 µg/mL.
Take `N#Cc1cnc2ccc(N)cc2c1Nc1cccc(Br)c1`: the IC50 against EGFR (human) [3] and against EGFR (human) [10] was over 100 µg/mL throughout.
As for `N#Cc1cnc2ccc([N+](=O)[O-])cc2c1Nc1cccc(Br)c1`, the IC50 against EGFR (human) [3], at EGFR (human) [11], on EGFR (human) [5], at EGFR (human) [12], against EGFR (human) [7] and against EGFR (human) [8] was over 100 µg/mL each time. The IC50 is over 100 µg/mL against EGFR (human) [13], 100 µg/mL (≈ 271 µM) on EGFR (human) [14], over 100 µg/mL against EGFR (human) [9] and over 100 µg/mL on EGFR (human) [15].
`COc1cc2ncc(C#N)c(Nc3cccc(Br)c3)c2cc1NC(=O)C#CCN(C)C` returned an IC50 at EGFR [1] of 0.008 nM.
`COc1cc2ncc(C#N)c(Nc3cccc(Br)c3)c2cc1OC` had an IC50 on EGFR (human) [2] of 300 nM.
As to `COc1cc2ncc(C#N)c(Nc3ccc(F)cc3)c2cc1OC`, the IC50 on EGFR (human) [3], against EGFR (human) [7] and on EGFR (human) [16] was over 100 µg/mL throughout.
Turning to `CCN1CCN(CC#CC(=O)Nc2ccc3ncc(C#N)c(Nc4cccc(Br)c4)c3c2)CC1`, at EGFR (human) [2], the IC50 is 800 nM.
Consider `CNC/C=C/C(=O)Nc1ccc2ncc(C#N)c(Nc3cccc(Br)c3)c2c1`, for which the IC50 on EGFR (human) [2] is over 10 µg/mL.
For `COc1cc2ncc(C#N)c(Nc3cccc(C#N)c3)c2cc1OC`, the IC50 at EGFR (human) [3] was over 100 µg/mL; on EGFR (human) [5], 100 µg/mL (≈ 303 µM); against EGFR (human) [6], over 100 µg/mL; against EGFR (human) [8], over 100 µg/mL; on EGFR (human) [10], over 100 µg/mL; at EGFR (human) [17] it was over 1 µg/mL. For the same compound, the IC50 on EGFR (human) [9] was 100 µg/mL (≈ 303 µM); against EGFR (human) [15] it was over 100 µg/mL.
With `CC#CC(=O)Nc1ccc2ncc(C#N)c(Nc3cccc(Br)c3)c2c1`, the half-inhibitory concentration (IC50) was over 100 µg/mL on EGFR (human) [3]; > 33 µg/mL and 87 µg/mL at EGFR (human) [4]; > 33 µg/mL and 90 µg/mL at EGFR (human) [11]; 9.8 µg/mL (≈ 24.2 µM) against EGFR (human) [18]; 7.89 µg/mL (≈ 19.5 µM) on EGFR (human) [19]; 9000 nM against EGFR [20]. The IC50 against EGFR (human) [5] is over 100 µg/mL; against EGFR (human) [12], over 100 µg/mL; against EGFR (human) [6], 100 µg/mL (≈ 247 µM); at EGFR (human) [7], over 100 µg/mL; on EGFR (human) [21] it was 9000 nM; on EGFR (human) [8], over 100 µg/mL. Besides, the IC50 against EGFR (human) [22] was 60.4 µg/mL (≈ 149 µM); against EGFR (human) [10] it was over 100 µg/mL; against EGFR (human) [23], 5.63 µg/mL (≈ 13.9 µM); against EGFR (human) [16] it was over 100 µg/mL; at EGFR (human) [13], 81.9 µg/mL (≈ 202 µM); against EGFR (human) [17], over 100 µg/mL. Also, the IC50 is > 33 µg/mL and 98.9 µg/mL against EGFR (human) [14]; > 33 µg/mL and 95.7 µg/mL at EGFR (human) [24]; 7.81 µg/mL (≈ 19.3 µM) against EGFR (human) [25]; 38.1 µg/mL against EGFR (human) [2]; over 100 µg/mL against EGFR (human) [9]; over 100 µg/mL against EGFR (human) [15].
Regarding `CC(=O)Nc1cc(CN(C)C)c2ncc(C#N)c(Nc3cccc(Br)c3)c2c1`, the IC50 at EGFR (human) [2] was over 5 µg/mL.
For `COc1cc2ncc(C#N)c(Nc3cccc(SC)c3)c2cc1OC`, the IC50 against EGFR [1] was 10 nM; against EGFR (human) [2] it was 14.3 µg/mL and 6.95 µg/mL.

By IC50 is commonly meant the concentration needed to halve the response being measured.
